Assay results taken from US20250213581A1, “COMBINATION THERAPY OF A PI3K INHIBITOR AND KRAS INHIBITOR AND METHODS OF USE THEREOF” (Totus Medicines Inc., priority 2022, published 2025).

Key:
[1] = test system: NCI-H358 (Lung) cell lines; test: Cell proliferation assay and synergy analysis, Compound I with Adagrasib; details: Homo sapiens, NCI-H358, 72 h, read-out: Ave of Inhibition (%)
From the text: (§4) The cell lines tested included: UM-UC-3 (bladder), KYSE-410 (HN/Esophagus), SW1463 (rectum), Calu-1 (Lung), NCI-H358 (Lung), SW837 (Rectum), SW756 (Cervix), NCI-H2122 (Lung), NCI-H1373 (Lung), NCI-H1792 (Lung), NCI-H23 (Lung), MIA PaCa-2 (Pancreas), and HCC44 (Lung).
(§5) Cells were recovered and maintained in appropriate culture media. The cells were harvested respectively during the logarithmic growth period. The cells were then resuspended and counted using a Vi cell counter (The cell viability was measured by trypan blue exclusion assay). The cells were then diluted and 80 μL of the cell suspensions were added to 96-well plates according to plate map with final cell density. Two duplicate plates were set up. One is for day 0 reading (T0) and the other was cultured in the incubator for reading at the end point. The incubated plates were incubated overnight in humidified incubator at 37° C. with 5% CO2.
(§6) At day 0, 20 μL of culture medium was added to each well for T0 reading. 10 μL of culture medium was added to each well for day 0 (T0) reading. Then, 50 μl of CellTiter-Glo® Reagent was added to each well. The contents were then mixed for 2 minutes on an orbital shaker to facilitate cell lysis. The plates were then allowed to incubate at room temperature for 10 minutes to stabilize luminescent signal. Luminescence was then recorded using an EnVision Multi Label Reader. […] The screening plates were then placed back into the incubator for the appropriate treatment time (3 days).
(§7) For the endpoint CTG reading, 50 μL of CellTiter-Glo® Reagent was added to each well. The contents were then mixed for 2 minutes on an orbital shaker to facilitate cell lysis. The plate was allowed to incubate at room temperature for 10 minutes to stabilize luminescent signal. Luminescence was then recorded using an EnVision Multi Label Reader. The surviving rate (%)=(LumTest article−LumMedium control)/(LumNone treated−LumMedium control)×100%.
(§8) A score higher than 5 indicates synergy, and a score less than −5 indicates antagonism.

[2] = test system: UM-UC-3 (bladder) cell lines; test: as above; details: Homo sapiens, UMUC3, 72 h, read-out: Ave Inhibition rate (%)
From the text: as §4, §5, §6, §7, §8

[3] = test system: SW756 (Cervix) cell lines; test: as above; details: Homo sapiens, SW756, 72 h, read-out: Ave Inhibition (%)
From the text: as §4, §5, §6, §7, §8

[4] = test system: SW1463 (rectum) cell lines; test: as above; details: Homo sapiens, SW1463, 72 h, read-out: Ave Inhibition (%)
From the text: as §4, §5, §6, §7, §8

HCC44 (Lung) = test: Cell proliferation assay (CellTiter-Glo, 3 days), single agent; format: cell-based; details: Homo sapiens, HCC44, read-out: Average Inhibition (%) (N = 3)
Procedure: (§1) Two duplicate plates were set up.
(§2) At day 0, 10 μL culture medium to each well for T0 reading. […] Compound I was diluted and 10 μL of each 10× compound I from working solutions for a concentration ranging from 10 μM to about 0.005 μM. Cisplatin was diluted to about 3.33 mM to about 150 nM.
(§3) IC50's were determined for each cell line.

NCI-H1373 (Lung) = test: as above; format: cell-based; details: Homo sapiens
Procedure: as §1, §2, §3

NCI-H23 (Lung) = test: as above; format: cell-based; details: Homo sapiens
Procedure: as §1, §2, §3

NCI-H358 (Lung) = test: as above; format: cell-based; details: 3 days treatment
Procedure: as §1, §2, §3

SW837 (Rectum) = test: as above; format: cell-based; details: Homo sapiens, SW837, 72 h, read-out: Absolute IC50 (μM)
Procedure: as §1, §2, §3

Calu-1 (Lung) = test: as above; format: cell-based; details: Homo sapiens, Calu-1, 72 h, read-out: Absolute IC50 (μM)
Procedure: as §1, §2, §3

NCI-H1792 (Lung) = test: as above; format: cell-based; details: Homo sapiens
Procedure: as §1, §2, §3

MIA PaCa-2 (Pancreas) = test: as above; format: cell-based; details: Homo sapiens
Procedure: as §1, §2, §3

NCI-H2122 (Lung) = test: as above; format: cell-based; details: Homo sapiens, NCI-H2122, read-out: Average Inhibition (%) (N = 3)
Procedure: as §1, §2, §3

UM-UC-3 (bladder) = test: as above; format: cell-based; details: Homo sapiens, UMUC3, 72 h, read-out: Absolute IC50 (μM)
Procedure: as §1, §2, §3

[5] = test system: KYSE-410 (HN/Esophagus) cell lines; test: Cell proliferation assay and synergy analysis, Compound I with Adagrasib; details: Homo sapiens, KYSE-410, 72 h, read-out: Ave inhibition (%)
From the text: as §4, §5, §6, §7, §8

Calu-1 (Lung) cell lines = test: as above; details: Homo sapiens, Calu-1, 72 h, read-out: Ave of Inhibition (%)
From the text: as §4, §5, §6, §7, §8

[6] = test system: SW837 (Rectum) cell lines; test: as above; details: Homo sapiens, SW837, 72 h, read-out: Ave of Inhibition (%)
From the text: as §4, §5, §6, §7, §8

PI3K = target: T1, PI3K (Homo sapiens, UniProt P42336); test: NanoBRET screening (binding assay) in transfected HEK293 cells; details: overnight incubation, washout
T1 construct: expressed in transfected cells; host or cells: HEK293 (Gibco 293-H), transient transfection with FuGENE HD
T1 sequence (P42336 whole entry): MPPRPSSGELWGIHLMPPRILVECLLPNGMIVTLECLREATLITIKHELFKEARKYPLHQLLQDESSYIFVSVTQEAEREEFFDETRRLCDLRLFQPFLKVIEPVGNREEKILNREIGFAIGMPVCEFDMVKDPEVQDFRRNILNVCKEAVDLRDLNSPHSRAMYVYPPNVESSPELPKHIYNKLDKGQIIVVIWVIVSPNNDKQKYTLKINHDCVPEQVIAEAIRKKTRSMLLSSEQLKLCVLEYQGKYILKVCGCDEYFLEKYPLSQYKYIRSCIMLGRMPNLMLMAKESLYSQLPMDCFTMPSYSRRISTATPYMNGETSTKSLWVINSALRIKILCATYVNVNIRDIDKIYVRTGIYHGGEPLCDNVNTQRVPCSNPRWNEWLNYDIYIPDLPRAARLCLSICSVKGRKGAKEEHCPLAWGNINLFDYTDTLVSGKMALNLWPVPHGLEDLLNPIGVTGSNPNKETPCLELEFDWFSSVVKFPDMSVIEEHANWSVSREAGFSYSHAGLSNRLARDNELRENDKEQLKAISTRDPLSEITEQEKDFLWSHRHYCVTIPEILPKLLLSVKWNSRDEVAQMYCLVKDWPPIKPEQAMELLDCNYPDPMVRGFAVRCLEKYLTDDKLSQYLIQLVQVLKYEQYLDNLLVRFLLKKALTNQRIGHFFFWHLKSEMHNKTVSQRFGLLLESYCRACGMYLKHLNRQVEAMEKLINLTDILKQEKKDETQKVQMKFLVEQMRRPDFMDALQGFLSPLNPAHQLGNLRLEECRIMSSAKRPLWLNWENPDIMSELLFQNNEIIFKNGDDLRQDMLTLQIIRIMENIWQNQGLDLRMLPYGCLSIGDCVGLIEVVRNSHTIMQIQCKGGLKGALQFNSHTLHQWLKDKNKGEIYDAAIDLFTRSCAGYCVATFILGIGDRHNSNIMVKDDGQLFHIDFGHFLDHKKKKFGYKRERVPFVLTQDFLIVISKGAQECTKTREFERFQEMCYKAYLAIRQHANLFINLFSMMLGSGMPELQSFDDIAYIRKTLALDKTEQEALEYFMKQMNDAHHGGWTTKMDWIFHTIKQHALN
T1 sequence (P27986 whole entry partner): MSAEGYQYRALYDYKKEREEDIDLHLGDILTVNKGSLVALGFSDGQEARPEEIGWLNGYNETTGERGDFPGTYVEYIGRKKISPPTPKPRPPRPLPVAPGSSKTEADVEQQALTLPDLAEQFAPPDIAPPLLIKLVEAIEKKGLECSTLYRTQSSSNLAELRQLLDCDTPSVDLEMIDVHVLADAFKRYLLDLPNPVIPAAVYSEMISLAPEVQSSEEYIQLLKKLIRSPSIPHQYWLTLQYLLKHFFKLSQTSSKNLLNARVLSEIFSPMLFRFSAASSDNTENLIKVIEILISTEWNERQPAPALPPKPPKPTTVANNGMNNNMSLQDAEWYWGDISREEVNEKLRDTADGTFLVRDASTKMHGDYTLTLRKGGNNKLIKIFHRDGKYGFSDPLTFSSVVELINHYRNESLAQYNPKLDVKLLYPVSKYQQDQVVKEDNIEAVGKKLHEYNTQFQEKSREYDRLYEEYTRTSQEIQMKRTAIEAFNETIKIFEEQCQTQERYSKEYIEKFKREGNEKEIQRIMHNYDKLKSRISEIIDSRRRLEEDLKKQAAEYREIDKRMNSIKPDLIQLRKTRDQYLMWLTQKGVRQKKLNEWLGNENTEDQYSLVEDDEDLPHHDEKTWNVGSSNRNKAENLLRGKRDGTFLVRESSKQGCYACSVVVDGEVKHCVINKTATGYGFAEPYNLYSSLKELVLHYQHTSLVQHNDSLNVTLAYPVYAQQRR
Procedure: Human embryonic kidney 293-H (HEK 293, Gibco 293-H, #11631017) cell lines were maintained in Dulbecco's Modified Eagle Medium, high glucose, pyruvate (DMEM, Gibco, #11995065) supplemented with 10% fetal bovine serum (FBS, Gibco, #10082147) and 1× penicillin-streptomycin (100× solution, Gibco, #15140148) at 37° C. and 5% CO2 in a water-saturated incubator. […] Opti-MEM media supplemented with 10% fetal bovine serum (Opti-MEM I reduced serum media, no phenol red, Gibco, #11058021) was used for culturing cells overnight for NanoBRET readout experiments.
HEK293 cells were cultivated appropriately prior to assay. The medium from cell flask was removed via aspiration, washed 1× with PBS followed by aspiration, trypsinized, and cells were allowed to dissociate from the flask. Trypsin was neutralized using growth medium and cells were pelleted via centrifugation at 200×g for 5 minutes. The medium was aspirated and the cells were resuspended into a single cell suspension using Opti-MEM I supplemented with 10% FBS. The cell density was adjusted to 2×10^5/mL in Opti-MEM I supplemented with 10% FBS in a sterile, conical tube. […]
A 10 μg/mL solution of DNA was prepared in Opti-MEM without serum. […] The plate on plate reader is read every hour for the next 6 hours.

[7] = NCI-H1373, read-out: Average Inhibition (%) (N = 3)
[8] = NCI-H23, read-out: Average Inhibition (%) (N = 3)
[9] = NCI-H1792, read-out: Average Inhibition (%) (N = 3)
[10] = MIA PaCa-2, read-out: Average Inhibition (%) (N = 3)

Question: Which results are given for `C=CC(=O)NCC(=O)N1CCN(Cc2cc3c(N4CCOCC4)nc(-c4cnc(NC(=O)OC)cc4C(F)(F)F)nn3c2)CC1` [Compound I, methyl (5-(6-((4-(acryloylglycyl)piperazin-1-yl)methyl)-4-morpholinopyrrolo[2,1-f][1,2,4]triazin-2-yl)-4-(trifluoromethyl)pyridin-2-yl)carbamate]?
Answer: inhibition at 0.0046 µM [1]: 0.76%; inhibition at 0.0137 µM [1]: 4.1%; inhibition at 0.0412 µM [1]: 10.8%; inhibition at 0.1235 µM [1]: 17.1%; inhibition at 0.3704 µM [1]: 25%; inhibition at 1.1111 µM [1]: 38.9%; inhibition at 3.3333 µM [1]: 50.4%; inhibition at 10 µM [1]: 61%; inhibition at 0.0046 µM [2]: -5.05%; inhibition at 0.0137 µM [2]: -5.07%; inhibition at 0.0412 µM [2]: -7.94%; inhibition at 0.1235 µM [2]: -4.04%; inhibition at 0.3704 µM [2]: 0.18%; inhibition at 1.1111 µM [2]: 9.37%; inhibition at 3.3333 µM [2]: 27.4%; inhibition at 10 µM [2]: 44.8%; inhibition at 0.0046 µM [3]: -1.03%; inhibition at 0.0137 µM [3]: -0.86%; inhibition at 0.0412 µM [3]: 1.55%; inhibition at 0.1235 µM [3]: 4.83%; inhibition at 0.3704 µM [3]: 8.26%; inhibition at 1.1111 µM [3]: 14.3%; inhibition at 3.3333 µM [3]: 21.6%; inhibition at 10 µM [3]: 34.6%; inhibition at 0.0046 µM [4]: 4.57%; inhibition at 0.0137 µM [4]: 2.64%; inhibition at 0.0412 µM [4]: 6.01%; inhibition at 0.1235 µM [4]: 15.7%; inhibition at 0.3704 µM [4]: 21.8%; inhibition at 1.1111 µM [4]: 29.5%; inhibition at 3.3333 µM [4]: 40.4%; inhibition at 10 µM [4]: 48.4%; inhibition at 0.0046 µM (HCC44 (Lung)): -3.82%; inhibition at 0.0137 µM (HCC44 (Lung)): -4.27%; inhibition at 0.0412 µM (HCC44 (Lung)): -1.38%; inhibition at 0.1235 µM (HCC44 (Lung)): 1.74%; inhibition at 0.3704 µM (HCC44 (Lung)): 10.1%; inhibition at 1.1111 µM (HCC44 (Lung)): 19.7%; inhibition at 3.3333 µM (HCC44 (Lung)): 33.1%; inhibition at 10 µM (HCC44 (Lung)): 43.7%; IC50 (NCI-H1373 (Lung); NCI-H1373, 72 h, read-out: Absolute IC50 (μM)): > 10 µM; inhibition at 0.0046 µM (NCI-H1373 (Lung); [7]): -3.29%; inhibition at 0.0137 µM (NCI-H1373 (Lung); [7]): -6.68%; inhibition at 0.0412 µM (NCI-H1373 (Lung); [7]): -5.53%; inhibition at 0.1235 µM (NCI-H1373 (Lung); [7]): -6.17%; inhibition at 0.3704 µM (NCI-H1373 (Lung); [7]): -5.69%; inhibition at 1.1111 µM (NCI-H1373 (Lung); [7]): -4.7%; inhibition at 3.3333 µM (NCI-H1373 (Lung); [7]): -9.75%; inhibition at 10 µM (NCI-H1373 (Lung); [7]): 8.28%; IC50 (NCI-H23 (Lung); NCI-H23, 72 h, read-out: Absolute IC50 (μM)): > 10 µM; inhibition at 0.0046 µM (NCI-H23 (Lung); [8]): 6.06%; inhibition at 0.0137 µM (NCI-H23 (Lung); [8]): 7.11%; inhibition at 0.0412 µM (NCI-H23 (Lung); [8]): 12.1%; inhibition at 0.1235 µM (NCI-H23 (Lung); [8]): 15.4%; inhibition at 0.3704 µM (NCI-H23 (Lung); [8]): 14.9%; inhibition at 1.1111 µM (NCI-H23 (Lung); [8]): 23.4%; inhibition at 3.3333 µM (NCI-H23 (Lung); [8]): 28.6%; inhibition at 10 µM (NCI-H23 (Lung); [8]): 37.2%; inhibitory effect on cell proliferation (in words) (NCI-H358 (Lung)): substantial inhibitory effect; IC50 (SW837 (Rectum)): > 10 µM; IC50 (Calu-1 (Lung)): > 10 µM; IC50 (NCI-H1792 (Lung); NCI-H1792, 72 h, read-out: Absolute IC50 (μM)): > 10 µM; inhibition at 0.0046 µM (NCI-H1792 (Lung); [9]): -7.35%; inhibition at 0.0137 µM (NCI-H1792 (Lung); [9]): -1.4%; inhibition at 0.0412 µM (NCI-H1792 (Lung); [9]): 2.27%; inhibition at 0.1235 µM (NCI-H1792 (Lung); [9]): 6.64%; inhibition at 0.3704 µM (NCI-H1792 (Lung); [9]): 7.05%; inhibition at 1.1111 µM (NCI-H1792 (Lung); [9]): 12.2%; inhibition at 3.3333 µM (NCI-H1792 (Lung); [9]): 22.4%; inhibition at 10 µM (NCI-H1792 (Lung); [9]): 34%; IC50 (MIA PaCa-2 (Pancreas); MIA PaCa-2, 72 h, read-out: Absolute IC50 (μM)): > 10 µM; inhibition at 0.0046 µM (MIA PaCa-2 (Pancreas); [10]): -5.76%; inhibition at 0.0137 µM (MIA PaCa-2 (Pancreas); [10]): -10.3%; inhibition at 0.0412 µM (MIA PaCa-2 (Pancreas); [10]): -8.58%; inhibition at 0.1235 µM (MIA PaCa-2 (Pancreas); [10]): -9.5%; inhibition at 0.3704 µM (MIA PaCa-2 (Pancreas); [10]): -5.32%; inhibition at 1.1111 µM (MIA PaCa-2 (Pancreas); [10]): 1.46%; inhibition at 3.3333 µM (MIA PaCa-2 (Pancreas); [10]): 13.9%; inhibition at 10 µM (MIA PaCa-2 (Pancreas); [10]): 30.6%; inhibition at 0.0046 µM (NCI-H2122 (Lung)): -2.13%; inhibition at 0.0137 µM (NCI-H2122 (Lung)): 2.34%; inhibition at 0.0412 µM (NCI-H2122 (Lung)): 13.6%; inhibition at 0.1235 µM (NCI-H2122 (Lung)): 24%; inhibition at 0.3704 µM (NCI-H2122 (Lung)): 36.5%; inhibition at 1.1111 µM (NCI-H2122 (Lung)): 45.6%; inhibition at 3.3333 µM (NCI-H2122 (Lung)): 52.5%; inhibition at 10 µM (NCI-H2122 (Lung)): 63.2%; IC50 (UM-UC-3 (bladder)): > 10 µM; inhibition at 0.0046 µM [5]: -1.36%; inhibition at 0.0137 µM [5]: 3.14%; inhibition at 0.0412 µM [5]: 9.47%; inhibition at 0.1235 µM [5]: 17.1%; inhibition at 0.3704 µM [5]: 29.4%; inhibition at 1.1111 µM [5]: 50.5%; inhibition at 3.3333 µM [5]: 65.8%; inhibition at 10 µM [5]: 71.3%; inhibition at 0.0046 µM (Calu-1 (Lung) cell lines): -8.39%; inhibition at 0.0137 µM (Calu-1 (Lung) cell lines): -5.3%; inhibition at 0.0412 µM (Calu-1 (Lung) cell lines): -3.3%; inhibition at 0.1235 µM (Calu-1 (Lung) cell lines): -0.27%; inhibition at 0.3704 µM (Calu-1 (Lung) cell lines): 3.9%; inhibition at 1.1111 µM (Calu-1 (Lung) cell lines): 31%; inhibition at 3.3333 µM (Calu-1 (Lung) cell lines): 11.6%; inhibition at 10 µM (Calu-1 (Lung) cell lines): 22.6%; inhibition at 0.0046 µM [6]: -3.3%; inhibition at 0.0137 µM [6]: -0.64%; inhibition at 0.0412 µM [6]: 8.04%; inhibition at 0.1235 µM [6]: 9.71%; inhibition at 0.3704 µM [6]: 15.9%; inhibition at 1.1111 µM [6]: 19%; inhibition at 3.3333 µM [6]: 21.8%; inhibition at 10 µM [6]: 27.5%; inhibition of the PI3K target (PI3K): greater than 80%
